Data from PubChem BioAssay (NCI).
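Assay format: 96-well plates, 48-hour exposure. Here, GI50 denotes the concentration required for 50% inhibition of growth. TGI: total growth inhibition.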 Active and inactive are the calls of the source. No stated cut-off is given here; in the data, active means GI50 below about 0.43 µM; inactive means the rest.

Key:
Assay in all cases: DTP human tumour cell line panel, 48 h
HL-60(TB) leukemia = tested on: HL-60(TB) leukemia
A549 NSCLC = tested on: A549 NSCLC
ACHN renal = tested on: ACHN renal
SNB-19 CNS = tested on: SNB-19 CNS
EKVX NSCLC = tested on: EKVX NSCLC
SK-OV-3 ovarian = tested on: SK-OV-3 ovarian
MOLT-4 leukemia = tested on: MOLT-4 leukemia
PC-3 prostate = tested on: PC-3 prostate
NCI-H522 lung = tested on: NCI-H522 lung
HS 578T breast = tested on: HS 578T breast
IGROV1 ovarian = tested on: IGROV1 ovarian
K-562 leukemia = tested on: K-562 leukemia
CAKI-1 renal = tested on: CAKI-1 renal
LOX IMVI melanoma = tested on: LOX IMVI melanoma
OVCAR-3 ovarian = tested on: OVCAR-3 ovarian
786-0 renal = tested on: 786-0 renal
SW-620 colon = tested on: SW-620 colon
MCF7 breast = tested on: MCF7 breast
UO-31 renal = tested on: UO-31 renal
UACC-62 melanoma = tested on: UACC-62 melanoma
U251 CNS = tested on: U251 CNS
OVCAR-8 ovarian = tested on: OVCAR-8 ovarian
M14 melanoma = tested on: M14 melanoma
NCI-H460 lung = tested on: NCI-H460 lung
HCT-15 colon = tested on: HCT-15 colon
SF-295 CNS = tested on: SF-295 CNS
RXF 393 renal = tested on: RXF 393 renal
NCI-H23 lung = tested on: NCI-H23 lung
SK-MEL-5 melanoma = tested on: SK-MEL-5 melanoma
SN12C renal = tested on: SN12C renal
SK-MEL-28 melanoma = tested on: SK-MEL-28 melanoma
A498 renal = tested on: A498 renal
NCI/ADR-RES ovarian = tested on: NCI/ADR-RES ovarian
KM12 colon = tested on: KM12 colon
UACC-257 melanoma = tested on: UACC-257 melanoma
BT-549 breast = tested on: BT-549 breast
SK-MEL-2 melanoma = tested on: SK-MEL-2 melanoma
RPMI-8226 leukemia = tested on: RPMI-8226 leukemia
MDA-MB-435 = tested on: MDA-MB-435
TK-10 renal = tested on: TK-10 renal
SR leukemia = tested on: SR leukemia
DU-145 prostate = tested on: DU-145 prostate
SF-268 CNS = tested on: SF-268 CNS
HOP-62 NSCLC = tested on: HOP-62 NSCLC
MDA-MB-231 breast = tested on: MDA-MB-231 breast
HCT-116 colon = tested on: HCT-116 colon
HOP-92 NSCLC = tested on: HOP-92 NSCLC
COLO 205 colon = tested on: COLO 205 colon
SF-539 CNS = tested on: SF-539 CNS
NCI-H226 lung = tested on: NCI-H226 lung
HCC-2998 colon = tested on: HCC-2998 colon
MALME-3M melanoma = tested on: MALME-3M melanoma
SNB-75 CNS = tested on: SNB-75 CNS
OVCAR-5 ovarian = tested on: OVCAR-5 ovarian
OVCAR-4 ovarian = tested on: OVCAR-4 ovarian
CCRF-CEM leukemia = tested on: CCRF-CEM leukemia
HT29 colon = tested on: HT29 colon

Clc1ccc(-c2csc(Nc3cccc(-c4csc(-c5ccccc5)n4)c3)n2)cc1
GI50 (HL-60(TB) leukemia): 17.2 µM | TGI (HL-60(TB) leukemia): 40.9 µM | GI50 (A549 NSCLC): 15.2 µM | TGI (A549 NSCLC): 43.4 µM | GI50 (ACHN renal): 14.6 µM | TGI (ACHN renal): 42.1 µM | GI50 (SNB-19 CNS): 13 µM | TGI (SNB-19 CNS): 27.3 µM | GI50 (EKVX NSCLC): 8.36 µM | TGI (EKVX NSCLC): 17.7 µM | GI50 (SK-OV-3 ovarian): 25.3 µM | TGI (SK-OV-3 ovarian): > 50 µM | GI50 (MOLT-4 leukemia): 19.5 µM | TGI (MOLT-4 leukemia): > 50 µM | GI50 (PC-3 prostate): 5.71 µM | TGI (PC-3 prostate): 17 µM | GI50 (NCI-H522 lung): 10.2 µM | TGI (NCI-H522 lung): 23.5 µM | GI50 (HS 578T breast): 20.6 µM | TGI (HS 578T breast): > 50 µM | GI50 (IGROV1 ovarian): 13.5 µM | TGI (IGROV1 ovarian): 39 µM | GI50 (K-562 leukemia): 7.11 µM | TGI (K-562 leukemia): 16.3 µM | GI50 (CAKI-1 renal): 9.77 µM | TGI (CAKI-1 renal): 25.6 µM | GI50 (LOX IMVI melanoma): 3.53 µM | TGI (LOX IMVI melanoma): 9.79 µM | GI50 (OVCAR-3 ovarian): 11.4 µM | TGI (OVCAR-3 ovarian): 32.4 µM | GI50 (786-0 renal): 10.8 µM | TGI (786-0 renal): 21.1 µM | GI50 (SW-620 colon): 12.2 µM | TGI (SW-620 colon): 28.8 µM | GI50 (MCF7 breast): 10.3 µM | TGI (MCF7 breast): > 50 µM | GI50 (UO-31 renal): 12.4 µM | TGI (UO-31 renal): 27.4 µM | GI50 (UACC-62 melanoma): 6.24 µM | TGI (UACC-62 melanoma): 13.6 µM | GI50 (U251 CNS): 7.39 µM | TGI (U251 CNS): 14.1 µM | GI50 (OVCAR-8 ovarian): 14.6 µM | TGI (OVCAR-8 ovarian): 39 µM | GI50 (M14 melanoma): 11.6 µM | TGI (M14 melanoma): 24.1 µM | GI50 (NCI-H460 lung): 10.5 µM | TGI (NCI-H460 lung): 27.1 µM | GI50 (HCT-15 colon): 6.01 µM | TGI (HCT-15 colon): 14.7 µM | GI50 (SF-295 CNS): 15.9 µM | TGI (SF-295 CNS): > 50 µM | GI50 (RXF 393 renal): 9.89 µM | TGI (RXF 393 renal): 21.9 µM | GI50 (NCI-H23 lung): 11.4 µM | TGI (NCI-H23 lung): 26.2 µM | GI50 (SK-MEL-5 melanoma): 8.95 µM | TGI (SK-MEL-5 melanoma): 18.9 µM | GI50 (SN12C renal): 7.6 µM | TGI (SN12C renal): 16.8 µM | GI50 (SK-MEL-28 melanoma): 5.93 µM | TGI (SK-MEL-28 melanoma): 15.6 µM | GI50 (A498 renal): 15.9 µM | TGI (A498 renal): 28.3 µM | GI50 (NCI/ADR-RES ovarian): 13 µM | TGI (NCI/ADR-RES ovarian): 24.2 µM | GI50 (KM12 colon): 15.7 µM | TGI (KM12 colon): > 50 µM | GI50 (UACC-257 melanoma): 14.9 µM | TGI (UACC-257 melanoma): 29 µM | GI50 (BT-549 breast): 15.8 µM | TGI (BT-549 breast): 31.4 µM | GI50 (SK-MEL-2 melanoma): 10.6 µM | TGI (SK-MEL-2 melanoma): 26.1 µM | GI50 (RPMI-8226 leukemia): 19.2 µM | TGI (RPMI-8226 leukemia): > 50 µM | GI50 (MDA-MB-435): 9.05 µM | TGI (MDA-MB-435): 21.6 µM | GI50 (TK-10 renal): 19.8 µM | TGI (TK-10 renal): > 50 µM | GI50 (SR leukemia): 6.8 µM | TGI (SR leukemia): 28.7 µM | GI50 (DU-145 prostate): 9.15 µM | TGI (DU-145 prostate): 17.5 µM | GI50 (SF-268 CNS): 8.68 µM | TGI (SF-268 CNS): 19.6 µM | GI50 (HOP-62 NSCLC): 10.7 µM | TGI (HOP-62 NSCLC): 22.8 µM | GI50 (MDA-MB-231 breast): 6.77 µM | TGI (MDA-MB-231 breast): 15.3 µM | GI50 (HCT-116 colon): 8.97 µM | TGI (HCT-116 colon): 18.5 µM | GI50 (HOP-92 NSCLC): 12.5 µM | TGI (HOP-92 NSCLC): > 50 µM | GI50 (COLO 205 colon): 10 µM | TGI (COLO 205 colon): 23.1 µM

C=CCN1C(=O)/C(=C/c2ccco2)N=C1SC1OC(COC(C)=O)C(OC(C)=O)C(OC(C)=O)C1OC(C)=O (stereo not drawn)
TGI (HL-60(TB) leukemia): 53.4 µM | TGI (ACHN renal): > 100 µM | TGI (EKVX NSCLC): > 100 µM | TGI (SK-OV-3 ovarian): > 100 µM | TGI (MOLT-4 leukemia): > 100 µM | TGI (PC-3 prostate): > 100 µM | TGI (NCI-H522 lung): 51.7 µM | TGI (IGROV1 ovarian): > 100 µM | TGI (K-562 leukemia): > 100 µM | TGI (CAKI-1 renal): > 100 µM | TGI (LOX IMVI melanoma): > 100 µM | TGI (OVCAR-3 ovarian): > 100 µM | TGI (SW-620 colon): > 100 µM | TGI (SF-539 CNS): > 100 µM | TGI (MCF7 breast): > 100 µM | TGI (UACC-62 melanoma): > 100 µM | TGI (U251 CNS): > 100 µM | TGI (OVCAR-8 ovarian): > 100 µM | TGI (NCI-H460 lung): > 100 µM | TGI (HCT-15 colon): > 100 µM | TGI (SF-295 CNS): > 100 µM | TGI (NCI-H226 lung): > 100 µM | TGI (RXF 393 renal): > 100 µM | TGI (NCI-H23 lung): > 100 µM | TGI (SK-MEL-5 melanoma): > 100 µM | TGI (SK-MEL-28 melanoma): > 100 µM | TGI (A498 renal): > 100 µM | TGI (NCI/ADR-RES ovarian): > 100 µM | TGI (KM12 colon): > 100 µM | TGI (UACC-257 melanoma): > 100 µM | TGI (BT-549 breast): > 100 µM | TGI (SK-MEL-2 melanoma): > 100 µM | TGI (RPMI-8226 leukemia): > 100 µM | TGI (HCC-2998 colon): > 100 µM | TGI (MDA-MB-435): > 100 µM | TGI (TK-10 renal): > 100 µM | TGI (SR leukemia): > 100 µM | TGI (DU-145 prostate): > 100 µM | TGI (HOP-62 NSCLC): > 100 µM | TGI (MALME-3M melanoma): > 100 µM | TGI (MDA-MB-231 breast): > 100 µM | TGI (SNB-75 CNS): > 100 µM | TGI (OVCAR-5 ovarian): > 100 µM | TGI (HOP-92 NSCLC): > 100 µM | TGI (COLO 205 colon): > 100 µM | TGI (OVCAR-4 ovarian): > 100 µM

O=c1c2ccccc2c(=O)c2c1c1[nH]c3ccccc3c1c1c(=O)c3ccccc3c(=O)c21
outcome (MOLT-4 leukemia): inactive | outcome (RPMI-8226 leukemia): inactive | outcome (SR leukemia): inactive

COc1ccc2[nH]c3c(c2c1)CCN[C@]31CS[C@@H]2c3c(OC(C)=O)c(C)c4c(c3[C@H](COC1=O)N1[C@@H]2[C@H]2c3c(cc(C)c(OC)c3O)C[C@@H]([C@@H]1O)N2C)OCO4
TGI (ACHN renal): 1.12 µM | TGI (MOLT-4 leukemia): > 100 µM | TGI (K-562 leukemia): > 100 µM | TGI (CAKI-1 renal): 1.68 µM | TGI (CCRF-CEM leukemia): > 100 µM | TGI (SR leukemia): > 100 µM | TGI (HT29 colon): > 100 µM | TGI (HOP-92 NSCLC): 0.0132 µM
